# Earlier results, collected in patent publication US8357679B2, “Hexafluoroisopropanol derivatives” (MSD Oss B.V., priority 2008, dated 2013).
# Tests used:
# [1] = system: vascular smooth muscle cell; settings: in vitro
# [2] = in vivo
# [3] = system: tumours; settings: animal model of prostate cancer
# [4] = in vivo; remark: listed apart in the source
smiles,measurement,setting,value
"O=S(=O)(c1ccccc1)N(CC(F)(F)F)c1ccc(C(O)(C(F)(F)F)C(F)(F)F)cc1 [Example T0901317, T0901317]",vascular smooth muscle cell proliferation,[1],inhibit
same,neointima formation following balloon injury,[2],inhibit
same,progression of tumours,[3],delayed progression of tumours
same,deposition of β-amyloid,[4],lower deposition of β-amyloid
same,memory,[4],improve memory
